# Reference: publication PMC6220303 (EMBO Molecular Medicine, 2018)
# Tested on: healthy participants ≥ 60 years
# Experiment: Adverse events after 3 months daily dosing (Appendix Table S8)
# Type: in vivo, human
# Method: For further details, see the Appendix Table S10 in Appendix and the accompanying clinical protocols synopsis (Appendix Table S11).
# Randomized, double-blind, placebo-controlled, parallel-group study to assess the safety, Multiple-dose over 13-tolerability, pharmacokinetics ≥ 60 yrs 100 / 24 weeks (2, 10, 35 or 85 mg and pharmacodynamics of q.d. CNP520 vs. placebo) multiple oral doses of CNP520 in healthy elderly participants
# Title A randomized, double-blind, placebo-controlled, parallel-group study to assess the safety, tolerability, pharmacokinetics and pharmacodynamics of multiple oral doses of CNP520 in healthy elderly subjects
# Brief title Dose-ranging safety and tolerability study in subjects ≥60 years of age Sponsor and Clinical Novartis
# Study type Interventional […]
# rationale months to allow initiation future long-term efficacy trials in patients with Alzheimer’s disease (AD) or in subjects at risk of AD. In addition, data relevant for Pharmacokinetic/Pharmacodynamic modeling will be obtained in order to define the target dose in subsequent efficacy studies.
# Primary Objective(s) To determine the safety and tolerability of multiple, once-daily oral doses of […]
# Secondary • To assess the change from baseline of CSF Aβ concentrations (Aβ1-Objectives 38; Aβ1-40; Aβ1-42) in healthy elderly subjects over 13 weeks treatment with CNP520 as compared to placebo
structure (smiles),measurement,setting,value
C[C@@]1(c2nc(NC(=O)c3ncc(C(F)(F)F)cc3Cl)ccc2F)CO[C@@](C)(C(F)(F)F)C(N)=N1 [CNP520],AE incidence: Blood and lymphatic system disorders,"2 mg daily, N = 25",0 (0.0) n (%)
same,AE incidence: Ear and labyrinth disorders,"2 mg daily, N = 25",0 (0.0) n (%)
same,AE incidence: Eye disorders,"2 mg daily, N = 25",2 (8.0) n (%)
same,AE incidence: Gastrointestinal disorders,"2 mg daily, N = 25",7 (28.0) n (%)
same,AE incidence: General disorders and administration site conditions,"2 mg daily, N = 25",1 (4.0) n (%)
same,AE incidence: Immune system disorders,"2 mg daily, N = 25",0 (0.0) n (%)
same,AE incidence: Infections and infestations,"2 mg daily, N = 25",3 (12.0) n (%)
same,"AE incidence: Injury, poisoning and procedural complications","2 mg daily, N = 25",7 (28.0) n (%)
same,AE incidence: Investigations,"2 mg daily, N = 25",2 (8.0) n (%)
same,AE incidence: Metabolism and nutrition disorders,"2 mg daily, N = 25",1 (4.0) n (%)
same,"AE incidence: Neoplasms benign, malignant & unspecified (incl. cysts and polyps)","2 mg daily, N = 25",1 (4.0) n (%)
same,AE incidence: Nervous system disorders,"2 mg daily, N = 25",13 (52.0) n (%)
same,AE incidence: Psychiatric disorders,"2 mg daily, N = 25",1 (4.0) n (%)
same,AE incidence: Renal and urinary disorders,"2 mg daily, N = 25",0 (0.0) n (%)
same,AE incidence: Reproductive system and breast disorders,"2 mg daily, N = 25",0 (0.0) n (%)
same,"AE incidence: Respiratory, thoracic and mediastinal disorders","2 mg daily, N = 25",6 (24.0) n (%)
same,AE incidence: Skin and subcutaneous tissue disorders,"2 mg daily, N = 25",3 (12.0) n (%)
same,AE incidence: Vascular disorders,"2 mg daily, N = 25",0 (0.0) n (%)
same,Participants with at least one AE,"2 mg daily, N = 25",19 (76.0) n (%)
same,AE incidence: Blood and lymphatic system disorders,"10 mg daily, N = 25",0 (0.0) n (%)
same,AE incidence: Ear and labyrinth disorders,"10 mg daily, N = 25",1 (4.0) n (%)
same,AE incidence: Eye disorders,"10 mg daily, N = 25",5 (20.0) n (%)
same,AE incidence: Gastrointestinal disorders,"10 mg daily, N = 25",9 (36.0) n (%)
same,AE incidence: General disorders and administration site conditions,"10 mg daily, N = 25",2 (8.0) n (%)
same,AE incidence: Immune system disorders,"10 mg daily, N = 25",0 (0.0) n (%)
same,AE incidence: Infections and infestations,"10 mg daily, N = 25",10 (40.0) n (%)
same,"AE incidence: Injury, poisoning and procedural complications","10 mg daily, N = 25",11 (44.0) n (%)
same,AE incidence: Investigations,"10 mg daily, N = 25",0 (0.0) n (%)
same,AE incidence: Metabolism and nutrition disorders,"10 mg daily, N = 25",1 (4.0) n (%)
same,"AE incidence: Neoplasms benign, malignant & unspecified (incl. cysts and polyps)","10 mg daily, N = 25",1 (4.0) n (%)
same,AE incidence: Nervous system disorders,"10 mg daily, N = 25",10 (40.0) n (%)
same,AE incidence: Psychiatric disorders,"10 mg daily, N = 25",2 (8.0) n (%)
same,AE incidence: Renal and urinary disorders,"10 mg daily, N = 25",2 (8.0) n (%)
same,AE incidence: Reproductive system and breast disorders,"10 mg daily, N = 25",2 (8.0) n (%)
same,"AE incidence: Respiratory, thoracic and mediastinal disorders","10 mg daily, N = 25",6 (24.0) n (%)
same,AE incidence: Skin and subcutaneous tissue disorders,"10 mg daily, N = 25",7 (28.0) n (%)
same,AE incidence: Vascular disorders,"10 mg daily, N = 25",2 (8.0) n (%)
same,Participants with at least one AE,"10 mg daily, N = 25",22 (88.0) n (%)
same,AE incidence: Blood and lymphatic system disorders,"35 mg daily, N = 26",1 (3.8) n (%)
same,AE incidence: Ear and labyrinth disorders,"35 mg daily, N = 26",1 (3.8) n (%)
same,AE incidence: Eye disorders,"35 mg daily, N = 26",0 (0.0) n (%)
same,AE incidence: Gastrointestinal disorders,"35 mg daily, N = 26",9 (34.6) n (%)
same,AE incidence: General disorders and administration site conditions,"35 mg daily, N = 26",4 (15.4) n (%)
same,AE incidence: Immune system disorders,"35 mg daily, N = 26",0 (0.0) n (%)
same,AE incidence: Infections and infestations,"35 mg daily, N = 26",6 (23.1) n (%)
same,"AE incidence: Injury, poisoning and procedural complications","35 mg daily, N = 26",10 (38.5) n (%)
same,AE incidence: Investigations,"35 mg daily, N = 26",1 (3.8) n (%)
same,AE incidence: Metabolism and nutrition disorders,"35 mg daily, N = 26",0 (0.0) n (%)
same,"AE incidence: Neoplasms benign, malignant & unspecified (incl. cysts and polyps)","35 mg daily, N = 26",0 (0.0) n (%)
same,AE incidence: Nervous system disorders,"35 mg daily, N = 26",9 (34.6) n (%)
same,AE incidence: Psychiatric disorders,"35 mg daily, N = 26",1 (3.8) n (%)
same,AE incidence: Renal and urinary disorders,"35 mg daily, N = 26",2 (7.7) n (%)
same,AE incidence: Reproductive system and breast disorders,"35 mg daily, N = 26",0 (0.0) n (%)
same,"AE incidence: Respiratory, thoracic and mediastinal disorders","35 mg daily, N = 26",5 (19.2) n (%)
same,AE incidence: Skin and subcutaneous tissue disorders,"35 mg daily, N = 26",2 (7.7) n (%)
same,AE incidence: Vascular disorders,"35 mg daily, N = 26",0 (0.0) n (%)
same,Participants with at least one AE,"35 mg daily, N = 26",21 (80.8) n (%)
same,AE incidence: Blood and lymphatic system disorders,"85 mg daily, N = 24",0 (0.0) n (%)
same,AE incidence: Ear and labyrinth disorders,"85 mg daily, N = 24",1 (4.2) n (%)
same,AE incidence: Eye disorders,"85 mg daily, N = 24",4 (16.7) n (%)
same,AE incidence: Gastrointestinal disorders,"85 mg daily, N = 24",4 (16.7) n (%)
same,AE incidence: General disorders and administration site conditions,"85 mg daily, N = 24",5 (20.8) n (%)
same,AE incidence: Immune system disorders,"85 mg daily, N = 24",1 (4.2) n (%)
same,AE incidence: Infections and infestations,"85 mg daily, N = 24",4 (16.7) n (%)
same,"AE incidence: Injury, poisoning and procedural complications","85 mg daily, N = 24",8 (33.3) n (%)
same,AE incidence: Investigations,"85 mg daily, N = 24",1 (4.2) n (%)
same,AE incidence: Metabolism and nutrition disorders,"85 mg daily, N = 24",0 (0.0) n (%)
same,"AE incidence: Neoplasms benign, malignant & unspecified (incl. cysts and polyps)","85 mg daily, N = 24",0 (0.0) n (%)
same,AE incidence: Nervous system disorders,"85 mg daily, N = 24",8 (33.3) n (%)
same,AE incidence: Psychiatric disorders,"85 mg daily, N = 24",2 (8.3) n (%)
same,AE incidence: Renal and urinary disorders,"85 mg daily, N = 24",1 (4.2) n (%)
same,AE incidence: Reproductive system and breast disorders,"85 mg daily, N = 24",0 (0.0) n (%)
same,"AE incidence: Respiratory, thoracic and mediastinal disorders","85 mg daily, N = 24",5 (20.8) n (%)
same,AE incidence: Skin and subcutaneous tissue disorders,"85 mg daily, N = 24",6 (25.0) n (%)
same,AE incidence: Vascular disorders,"85 mg daily, N = 24",1 (4.2) n (%)
same,Participants with at least one AE,"85 mg daily, N = 24",18 (75.0) n (%)
same,AE incidence: Blood and lymphatic system disorders,"all doses, N = 100",1 (1.0) n (%)
same,AE incidence: Ear and labyrinth disorders,"all doses, N = 100",3 (3.0) n (%)
same,AE incidence: Eye disorders,"all doses, N = 100",11 (11.0) n (%)
same,AE incidence: Gastrointestinal disorders,"all doses, N = 100",29 (29.0) n (%)
same,AE incidence: General disorders and administration site conditions,"all doses, N = 100",12 (12.0) n (%)
same,AE incidence: Immune system disorders,"all doses, N = 100",1 (1.0) n (%)
same,AE incidence: Infections and infestations,"all doses, N = 100",23 (23.0) n (%)
same,"AE incidence: Injury, poisoning and procedural complications","all doses, N = 100",36 (36.0) n (%)
same,AE incidence: Investigations,"all doses, N = 100",4 (4.0) n (%)
same,AE incidence: Metabolism and nutrition disorders,"all doses, N = 100",2 (2.0) n (%)
same,"AE incidence: Neoplasms benign, malignant & unspecified (incl. cysts and polyps)","all doses, N = 100",2 (2.0) n (%)
same,AE incidence: Nervous system disorders,"all doses, N = 100",40 (40.0) n (%)
same,AE incidence: Psychiatric disorders,"all doses, N = 100",6 (6.0) n (%)
same,AE incidence: Renal and urinary disorders,"all doses, N = 100",5 (5.0) n (%)
same,AE incidence: Reproductive system and breast disorders,"all doses, N = 100",2 (2.0) n (%)
same,"AE incidence: Respiratory, thoracic and mediastinal disorders","all doses, N = 100",22 (22.0) n (%)
same,AE incidence: Skin and subcutaneous tissue disorders,"all doses, N = 100",18 (18.0) n (%)
same,AE incidence: Vascular disorders,"all doses, N = 100",3 (3.0) n (%)
same,Participants with at least one AE,"all doses, N = 100",80 (80.0) n (%)
same,AE incidence: Musculoskeletal and connective tissue disorders,"human, in vivo",27 (27.0) n (%)
